# Assay results as given in PubChem BioAssay (NCI).
#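 Method: 48-hour compound exposure of cells in 96-well plates, five concentrations, linear interpolation of endpoints. Abbreviation: GI50, concentration required for 50% inhibition of growth. Definition used: TGI = concentration required for complete inhibition of growth.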
# Assays:
# Assay in all cases: growth of human tumour cells (NCI), 48 h
# [1] = system: 786-0 renal
# [2] = system: A549 NSCLC
# [3] = system: CAKI-1 renal
# [4] = system: COLO 205 colon
# [5] = system: DLD-1 colon
# [6] = system: DMS 273 small cell lung
# [7] = system: EKVX NSCLC
# [8] = system: HCC-2998 colon
# [9] = system: HCT-116 colon
# [10] = system: HCT-15 colon
# [11] = system: HOP-18 NSCLC
# [12] = system: IGROV1 ovarian
# [13] = system: KM20L2 colon
# [14] = system: LOX IMVI melanoma
# [15] = system: LXFL 529 NSCLC
# [16] = system: M14 melanoma
# [17] = system: MALME-3M melanoma
# [18] = system: NCI-H226 lung
# [19] = system: NCI-H23 lung
# [20] = system: NCI-H460 lung
# [21] = system: NCI-H522 lung
# [22] = system: OVCAR-3 ovarian
# [23] = system: OVCAR-4 ovarian
# [24] = system: OVCAR-5 ovarian
# [25] = system: OVCAR-8 ovarian
# [26] = system: RXF 393 renal
# [27] = system: SF-268 CNS
# [28] = system: SF-295 CNS
# [29] = system: SF-539 CNS
# [30] = system: SK-MEL-2 melanoma
# [31] = system: SK-MEL-28 melanoma
# [32] = system: SN12C renal
# [33] = system: SNB-19 CNS
# [34] = system: SNB-75 CNS
# [35] = system: SNB-78 CNS
# [36] = system: SW-620 colon
# [37] = system: TK-10 renal
# [38] = system: U251 CNS
# [39] = system: UACC-62 melanoma
# [40] = system: UO-31 renal
# [41] = system: A498 renal
# [42] = system: ACHN renal
# [43] = system: BT-549 breast
# [44] = system: CCRF-CEM leukemia
# [45] = system: DU-145 prostate
# [46] = system: HL-60(TB) leukemia
# [47] = system: HOP-62 NSCLC
# [48] = system: HOP-92 NSCLC
# [49] = system: HS 578T breast
# [50] = system: HT29 colon
# [51] = system: K-562 leukemia
# [52] = system: KM12 colon
# [53] = system: MCF7 breast
# [54] = system: MDA-MB-231 breast
# [55] = system: MDA-MB-435
# [56] = system: MDA-N
# [57] = system: MOLT-4 leukemia
# [58] = system: NCI/ADR-RES ovarian
# [59] = system: PC-3 prostate
# [60] = system: RPMI-8226 leukemia
# [61] = system: SK-MEL-5 melanoma
# [62] = system: SK-OV-3 ovarian
# [63] = system: SR leukemia
# [64] = system: T-47D breast
# [65] = system: UACC-257 melanoma
compound,measurement,setting,value
CNC(P(=O)([O-])[O-])P(=O)([O-])[O-].N.N.[Pt+2],GI50,[1],> 100 µM
same,TGI,[1],> 100 µM
same,GI50,[2],> 100 µM
same,TGI,[2],> 100 µM
same,GI50,[3],> 100 µM
same,TGI,[3],> 100 µM
same,GI50,[4],> 100 µM
same,TGI,[4],> 100 µM
same,GI50,[5],> 100 µM
same,TGI,[5],> 100 µM
same,GI50,[6],> 100 µM
same,TGI,[6],> 100 µM
same,GI50,[7],> 100 µM
same,TGI,[7],> 100 µM
same,GI50,[8],> 100 µM
same,TGI,[8],> 100 µM
same,GI50,[9],> 100 µM
same,TGI,[9],> 100 µM
same,GI50,[10],> 100 µM
same,TGI,[10],> 100 µM
same,GI50,[11],> 100 µM
same,TGI,[11],> 100 µM
same,GI50,[12],> 100 µM
same,TGI,[12],> 100 µM
same,GI50,[13],> 100 µM
same,TGI,[13],> 100 µM
same,GI50,[14],> 100 µM
same,TGI,[14],> 100 µM
same,GI50,[15],> 100 µM
same,TGI,[15],> 100 µM
same,GI50,[16],> 100 µM
same,TGI,[16],> 100 µM
same,GI50,[17],> 100 µM
same,TGI,[17],> 100 µM
same,GI50,[18],> 100 µM
same,TGI,[18],> 100 µM
same,GI50,[19],> 100 µM
same,TGI,[19],> 100 µM
same,GI50,[20],51.2 µM
same,TGI,[20],> 100 µM
same,GI50,[21],> 100 µM
same,TGI,[21],> 100 µM
same,GI50,[22],> 100 µM
same,TGI,[22],> 100 µM
same,GI50,[23],> 100 µM
same,TGI,[23],> 100 µM
same,GI50,[24],> 100 µM
same,TGI,[24],> 100 µM
same,GI50,[25],> 100 µM
same,TGI,[25],> 100 µM
same,GI50,[26],> 100 µM
same,TGI,[26],> 100 µM
same,GI50,[27],> 100 µM
same,TGI,[27],> 100 µM
same,GI50,[28],> 100 µM
same,TGI,[28],> 100 µM
same,GI50,[29],> 100 µM
same,TGI,[29],> 100 µM
same,GI50,[30],> 100 µM
same,TGI,[30],> 100 µM
same,GI50,[31],> 100 µM
same,TGI,[31],> 100 µM
same,GI50,[32],> 100 µM
same,TGI,[32],> 100 µM
same,GI50,[33],> 100 µM
same,TGI,[33],> 100 µM
same,GI50,[34],> 100 µM
same,TGI,[34],> 100 µM
same,GI50,[35],> 100 µM
same,TGI,[35],> 100 µM
same,GI50,[36],> 100 µM
same,TGI,[36],> 100 µM
same,GI50,[37],> 100 µM
same,TGI,[37],> 100 µM
same,GI50,[38],> 100 µM
same,TGI,[38],> 100 µM
same,GI50,[39],> 100 µM
same,TGI,[39],> 100 µM
same,GI50,[40],> 100 µM
same,TGI,[40],> 100 µM
O=P(O)(CCP(=O)(O)c1ccccc1)c1ccccc1,TGI,[1],> 100 µM
same,TGI,[41],> 100 µM
same,TGI,[2],> 100 µM
same,TGI,[42],> 100 µM
same,TGI,[43],> 100 µM
same,TGI,[3],> 100 µM
same,TGI,[44],> 100 µM
same,TGI,[4],> 100 µM
same,TGI,[45],> 100 µM
same,TGI,[7],> 100 µM
same,TGI,[8],> 100 µM
same,TGI,[9],> 100 µM
same,TGI,[10],> 100 µM
same,TGI,[46],> 100 µM
same,TGI,[47],> 100 µM
same,TGI,[48],> 100 µM
same,TGI,[49],> 100 µM
same,TGI,[50],> 100 µM
same,TGI,[12],> 100 µM
same,TGI,[51],> 100 µM
same,TGI,[52],> 100 µM
same,TGI,[14],> 100 µM
same,TGI,[16],> 100 µM
same,TGI,[17],> 100 µM
same,TGI,[53],> 100 µM
same,TGI,[54],> 100 µM
same,TGI,[55],> 100 µM
same,TGI,[56],> 100 µM
same,TGI,[57],> 100 µM
same,TGI,[18],> 100 µM
same,TGI,[19],> 100 µM
same,TGI,[20],> 100 µM
same,TGI,[21],> 100 µM
same,TGI,[58],> 100 µM
same,TGI,[22],> 100 µM
same,TGI,[23],> 100 µM
same,TGI,[24],> 100 µM
same,TGI,[25],> 100 µM
same,TGI,[59],> 100 µM
same,TGI,[60],> 100 µM
same,TGI,[26],> 100 µM
same,TGI,[27],> 100 µM
same,TGI,[28],> 100 µM
same,TGI,[29],> 100 µM
same,TGI,[30],> 100 µM
same,TGI,[31],> 100 µM
same,TGI,[61],> 100 µM
same,TGI,[62],> 100 µM
same,TGI,[32],> 100 µM
same,TGI,[33],> 100 µM
same,TGI,[34],> 100 µM
same,TGI,[63],> 100 µM
same,TGI,[36],> 100 µM
same,TGI,[64],> 100 µM
same,TGI,[37],> 100 µM
same,TGI,[38],> 100 µM
same,TGI,[65],> 100 µM
same,TGI,[39],> 100 µM
same,TGI,[40],> 100 µM
Cn1c(=O)c2c(nc(NCCCCl)n2CC(=O)O)n(C)c1=O,TGI,[1],> 100 µM
same,TGI,[41],> 100 µM
same,TGI,[2],> 100 µM
same,TGI,[42],> 100 µM
same,TGI,[43],> 100 µM
same,TGI,[3],> 100 µM
same,TGI,[44],> 100 µM
same,TGI,[4],> 100 µM
same,TGI,[45],> 100 µM
same,TGI,[7],> 100 µM
same,TGI,[8],> 100 µM
same,TGI,[9],> 100 µM
same,TGI,[10],> 100 µM
same,TGI,[46],> 100 µM
same,TGI,[47],> 100 µM
same,TGI,[48],> 100 µM
same,TGI,[49],> 100 µM
same,TGI,[50],> 100 µM
same,TGI,[12],> 100 µM
same,TGI,[51],> 100 µM
same,TGI,[52],> 100 µM
same,TGI,[14],> 100 µM
same,TGI,[16],> 100 µM
same,TGI,[53],> 100 µM
same,TGI,[54],> 100 µM
same,TGI,[55],> 100 µM
same,TGI,[56],> 100 µM
same,TGI,[57],> 100 µM
same,TGI,[18],> 100 µM
same,TGI,[19],> 100 µM
same,TGI,[20],> 100 µM
same,TGI,[21],> 100 µM
same,TGI,[58],> 100 µM
same,TGI,[22],> 100 µM
same,TGI,[23],> 100 µM
same,TGI,[24],> 100 µM
same,TGI,[25],> 100 µM
same,TGI,[59],> 100 µM
same,TGI,[60],> 100 µM
same,TGI,[26],> 100 µM
same,TGI,[27],> 100 µM
same,TGI,[28],> 100 µM
same,TGI,[30],> 100 µM
same,TGI,[31],> 100 µM
same,TGI,[61],> 100 µM
same,TGI,[62],> 100 µM
same,TGI,[32],> 100 µM
same,TGI,[33],> 100 µM
same,TGI,[34],> 100 µM
same,TGI,[63],> 100 µM
same,TGI,[36],> 100 µM
same,TGI,[64],> 100 µM
same,TGI,[37],> 100 µM
same,TGI,[38],> 100 µM
same,TGI,[65],> 100 µM
same,TGI,[39],> 100 µM
same,TGI,[40],> 100 µM
